Assay [1] addresses T1, PDI (PDIA1), purified / recombinant wild-type human PDI (Homo sapiens, UniProt P07237). Description: biochemical.
The target in assay [2] is T1, PDI (PDIA1), purified / recombinant wild-type human PDI. Description: biochemical. The source holds these as a separate data set.

Like-named read-outs stand apart in the source and are kept apart here.

T1 sequence (P07237 18-508): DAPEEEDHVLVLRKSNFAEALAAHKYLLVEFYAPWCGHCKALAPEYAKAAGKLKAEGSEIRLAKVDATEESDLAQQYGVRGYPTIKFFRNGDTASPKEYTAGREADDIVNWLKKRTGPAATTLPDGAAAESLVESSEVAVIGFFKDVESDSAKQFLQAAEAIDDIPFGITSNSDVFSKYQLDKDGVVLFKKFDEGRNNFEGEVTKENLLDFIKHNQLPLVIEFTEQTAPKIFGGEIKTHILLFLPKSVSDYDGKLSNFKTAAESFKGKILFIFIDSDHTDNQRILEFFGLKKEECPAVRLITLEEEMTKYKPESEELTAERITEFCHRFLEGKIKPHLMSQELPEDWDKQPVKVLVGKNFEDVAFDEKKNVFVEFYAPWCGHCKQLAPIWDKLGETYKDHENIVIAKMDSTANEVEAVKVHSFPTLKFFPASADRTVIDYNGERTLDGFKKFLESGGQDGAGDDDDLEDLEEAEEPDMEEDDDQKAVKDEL

A word on the Kd: it is the free concentration of one partner at which half of the binding sites on the other are occupied at equilibrium, for simple one-to-one binding. For the compound `C[C@]12CC[C@@H]3c4cc(O)c(O)cc4CC[C@H]3[C@@H]1CCC2=O` [2-OH-E1, 1,3,5([10])-Estratrien-2,3-diol-17-one], the Kd in assay [1] is 24.2 nM.

For `C[C@]12CC[C@@H]3c4cc(O)c(O)cc4CC[C@H]3[C@@H]1CC[C@@H]2O` [2-OH-E2, 1,3,5([10])-estratrien-2,3,17β-triol], in assay [2], the Kd is 61.3 to 68.3 nM.

The values are drawn from doi:10.1101/2024.05.26.595989v1 (biorxiv, 2024).
